This is an account of results in patent publication US9422357B2, “Glycosylated polypeptide and drug composition containing said polypeptide” (priority 2011, dated 2016).

A short description of data set [1]: Pharmacokinetics test with rats (intravenous and subcutaneous administration). As to conditions: rat.
Method: PBS solution was prepared by dissolving 1 tablet of Phosphate buffered saline (P4417 from Sigma) in 200 mL of ultrapure water.
0.2 mL of the collected blood was promptly mixed with 0.2 mL of the aprotinin-containing EDTA-PBS solution prepared in the above 68-1, and left on ice for 30 minutes or more. […] As blank plasma, plasma obtained by similarly treating the blood collected from untreated rat cervical vein was employed. Plasma samples were frozen in storage until employed for measurement. […] The standard solution for creating a standard curve was prepared as follows. First, the blank plasma obtained in the above 68-2 was diluted with the assay buffer supplied in the EIA kit similarly to the plasma sample, and this was used as the assay buffer for standard solution preparation (for example, when diluting the plasma sample to 100-fold, 1/100 amount of blank plasma was added to the assay buffer supplied in the EIA kit, and this was used as the assay buffer for standard solution preparation). […] Moreover, the predicted initial concentration (C0) was determined by the extrapolation method for intravenous administration, t1/2 and MRT were calculated, and the maximum plasma concentration (Cmax) was determined from the actual value for subcutaneous administration.
Moreover, the parameters obtained were employed to calculate bioavailability from the following mathematical formula. […]
The subject of data set [2] is amylase, LDH, CPK. Nature of the data set: Gastrointestinal obstruction model, blood parameters (amylase, LDH, CPK). Conditions: Table 10; rat gastrointestinal obstruction model.
Method: This experimental line was carried out as a test line to evaluate the promotion of intestinal fluid absorption or the secretory suppressing action, using the change in the intestinal fluid weight in the jejunum after bowel obstruction as an indicator. Moreover, blood parameters of deviation enzymes amylase (pancreas), lactate dehydrogenase (LDH, liver), and creatine phosphokinase (CPK, skeletal muscle, cardiac muscle etc.) were measured as indicators of tissue disorders.
Anesthesia was introduced with inhalation of 2% isoflurane and laughing gas:oxygen=7:3, and this was maintained throughout the surgery. A median incision was made in the abdomen, and the jejunum at about 10 cm from the musculus suspensorius duodeni was ligated with a surgical suture. Then, the incision site was promptly sutured, and the rats were fasted until compound administration. […]
One hour after compound administration, a median incision was made in the abdomen under inhalation anesthesia, and 1.5 mL of blood was collected from the abdominal vena cava. […] The fluid and blood on the jejunum surface were removed with a paper towel, nerves, blood vessels, and fat attached to the jejunum was removed, this was cut into 6 cm lengths, and wet weight was measured. This was then dried at 36 degrees for 24 hours, and dry weight was measured. […]

Molecules are shown by their SMILES.

As to `C[C@H](N)C(=O)NCC(=O)N[C@H]1CSSC[C@@H](C(=O)O)NC(=O)[C@H](CO)NC(=O)[C@H]([C@@H](C)O)NC(=O)[C@H](Cc2ccccc2)NC(=O)[C@H]([C@@H](C)O)NC(=O)[C@H](CCCCN)NC(=O)[C@H](Cc2c[nH]c3ccccc23)NC(=O)[C@H](Cc2ccccc2)NC(=O)[C@H](Cc2ccccc2)NC(=O)[C@H](CC(N)=O)NC(=O)[C@H](CCCCN)NC1=O` [SRIF14], the “C0, intravenous administration” value is 819 in data set [1] (Table 5D, no unit at the table (Table 4: nM), extrapolation) and 819 in data set [1] (Tables 5B-5F, no unit printed in these tables (Table 5A footnote: nM)).
In the case of `C[C@@H](O)[C@@H]1NC(=O)[C@H](CCCCN)NC(=O)[C@@H](Cc2c[nH]c3ccccc23)NC(=O)[C@H](Cc2ccccc2)NC(=O)[C@@H](NC(=O)[C@H](N)Cc2ccccc2)CSSC[C@@H](C(=O)N[C@H](CO)[C@@H](C)O)NC1=O` [octreotide], in data set [2], the “LDH activity compared to the vehicle” value is “low value compared to the vehicle” and the “amylase activity compared to the vehicle” value is given as “equivalent to the vehicle”.
